Data on eleven compounds can be found in patent publication US20140221354A1, “IMIDAZO [1,2-a]PYRIDINE COMPOUNDS FOR USE IN THERAPY” (EMBLEM Technology Transfer GmbH, priority 2011, published 2014).

This assay concerns CellSensor® HRE-bla HCT-116 stably transfected reporter cell line. Nature of the assay: HIF/HRE reporter assay. The assay is classed as cell-based. Particulars: Homo sapiens, inhibition of activated HIF signaling response, hypoxic conditions induced with deferoxamine (DFO), 24 h incubation, blue/green emission ratio, read-out: Evaluation. The protocol:
Inhibition of an activated HIF signaling response under chemically-induced hypoxic conditions due to compound treatment was determined using the CellSensor® HRE-bla HCT-116 stably transfected reporter cell line from Invitrogen according to the manufacturer's instructions.
Cells were maintained as described previously and seeded into 384-well, clear-bottom plates (Corning 3712) at 15000 cells/well in 32 μl assay medium (Opti-MEM [Invitrogen], 0.5% FBS, 100 U/ml penicillin, 100 μg/ml streptomycin, 0.1 mM non-essential amino acids [NEAA], 1 mM sodium pyruvate, 5 mM HEPES [pH 7.3]). Following a 2 h incubation period, compounds (4 μl) were subsequently added to the cells at 10× concentrations in 5% DMSO and incubated under normal conditions for 30 min. To induce hypoxic conditions, 4 μl of a 2 mM deferoxamine (DFO) solution was added to the cells followed by 24 h incubation under standard assay conditions (as described). Control wells included wells containing only medium (no cells) and wells treated with 0.5% DMSO instead of compound.
Prior to the readout, the Substrate Loading Solution was prepared as described in the manufacturer's protocol and 10 μl added to each well. Following a further 2 h incubation period at room temperature and in the dark, fluorescence was measured at two wavelengths (blue channel: ex. 409 nm, em. 460 nm; green channel: ex. 409 nm, em. 530 nm) on a PerkinElmer Envision HTS. For the analysis, the average signal of the cell-free wells at 460 nm and 530 nm was first subtracted from the blue and green channel data, respectively. The blue/green emission ratios were then calculated for each well, dividing the background-corrected blue emission values by the background-corrected green emission values. […] values were determined from these ratios using GraphPad Prism (Prism 5, GraphPad software, Inc.).
(In general: A reporter such as luciferase makes a cellular process visible.)

Where only a bound is given, the exact number is not on record here.

For the compound `Cc1cccc(-c2ccc3nc(-c4ccc(C#N)cc4)c(CN4CCCNCC4)n3c2)c1` [Example 24, 4-(3-((1,4-diazepan-1-yl)methyl)-6-(m-tolyl)imidazo[1,2-a]pyridin-2-yl)benzonitrile], the EC50 is less than 0.5 µM.
Turning to `N#Cc1ccc(-c2nc3ccc(-c4ccc(Cl)cc4)cn3c2CN2CCCNCC2)cc1` [Example 40, 4-(3-((1,4-diazepan-1-yl)methyl)-6-(4-chlorophenyl)imidazo[1,2-a]pyridin-2-yl)benzonitrile], the EC50 was less than 0.5 µM.
On to `N#Cc1ccc(-c2nc3ccc(-c4cccnc4)cn3c2CN2CCCNCC2)cc1` [Example 29, 4-(3-((1,4-diazepan-1-yl)methyl)-6-(pyridin-3-yl)imidazo[1,2-a]pyridin-2-yl)benzonitrile], for which the EC50 was more than 1 µM.
For the compound `O=C1CN(Cc2c(-c3ccc(Cl)cc3)nc3ccc(-c4ccccc4)cn23)CCN1` [Example 32, 4-((2-(4-chlorophenyl)-6-phenylimidazo[1,2-a]pyridin-3-yl)methyl)piperazin-2-one], the EC50 is more than 1 µM.
In the case of `CCN1CCN(Cc2c(-c3ccc([N+](=O)[O-])cc3)nc3ccc(-c4ccccc4)cn23)CC1` [Example 6, 3-((4-ethylpiperazin-1-yl)methyl)-2-(4-nitrophenyl)-6-phenylimidazo[1,2-a]pyridine] it was 0.5 to 1 µM; in that of `Cc1ccc(-c2ccc3nc(-c4ccc(C#N)cc4)c(CN4CCCNCC4)n3c2)cc1` [Example 23, 4-(3-((1,4-diazepan-1-yl)methyl)-6-(p-tolyl)imidazo[1,2-a]pyridin-2-yl)benzonitrile], less than 0.5 µM; in that of `N#Cc1ccc(-c2nc3ccc(-c4ccccc4)cn3c2CN2CCCNCC2)cc1` [Example 9, 4-(3-((1,4-diazepan-1-yl)methyl)-6-phenylimidazo[1,2-a]pyridin-2-yl)benzonitrile], less than 0.5 µM.
With `CN1CCCN(Cc2c(-c3ccc(C#N)cc3)nc3ccc(-c4ccccc4)cn23)CC1` [Example 34, 4-(3-((4-methyl-1,4-diazepan-1-yl)methyl)-6-phenylimidazo[1,2-a]pyridin-2-yl)benzonitrile], the EC50 was less than 0.5 µM.
With `N#Cc1ccc(-c2nc3ccc(-c4ccccc4)cn3c2CN2CCNC(=O)C2)s1` [Example 35, 5-(3-((3-oxopiperazin-1-yl)methyl)-6-phenylimidazo[1,2-a]pyridin-2-yl)thiophene-2-carbonitrile], the EC50 was more than 1 µM.
On to `Cn1cccc1-c1ccc2nc(-c3ccc(C#N)cc3)c(CN3CCCNCC3)n2c1` [Example 38, 4-(3-((1,4-diazepan-1-yl)methyl)-6-(1-methyl-1H-pyrrol-2-yl)imidazo[1,2-a]pyridin-2-yl)benzonitrile], for which the EC50 was in the range of 0.5 to 1 µM.
Regarding `N#Cc1ccc(-c2nc3ccc(-c4cnco4)cn3c2CN2CCCNCC2)cc1` [Example 39, 4-(3-((1,4-diazepan-1-yl)methyl)-6-(oxazol-5-yl)imidazo[1,2-a]pyridin-2-yl)benzonitrile], the EC50 is more than 1 µM.
